Experimental data taken from patent US20050014811A1, “Substituted benzimidazole compounds and their use for the treatment of cancer” (Aventis Pharma S.A., priority 2001, published 2005).

Legend:
[1] = target: CDK4/CyclinD1 (Homo sapiens, UniProt P11802); test: CDK4/CyclinD1 Flashplate assay, 96-well format, biotinylated-Rb peptide substrate; assay type: biochemical
How it was run: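 Biotinylated Rb peptide bound to streptavidin Flashplate; CDK4/CyclinD1 (70 ng/well) preincubated 30 min on ice with compound at 10, 3, 1, 0.3 and 0.1 μM final. Reaction with 1 μM cold ATP plus 33P-ATP for 45 min at RT; incorporated 33P counted, duplicates.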

[2] = target: CDK2/CyclinE (Homo sapiens, UniProt P24941); test: CDK2/CyclinE Flashplate assay, 96-well format, biotinylated-Rb peptide substrate; assay type: biochemical
Protocol: This is a CDK2/CyclinE kinase assay in a 96-well Streptavidin-coated Flashplate with a biotinylated-Rb peptide substrate.
Each point is tested in duplicate
Biotinylated-Rb: Biotin-[…]-OH
• 1. Prepare substrate: 1 mg/ml solution made fresh in PBS. • 2. Add 4 μg per well to the Flashplate. • 3. Incubate for 2 hours at RT. • 4. From 10 mM inhibitor stocks in DMSO, make 1 mM, 300 μM, 100 μM, 30 μM and 10 μM series of dilution in DMSO. • 5. Was the Flashplate 3 times with 300 μl PBS to remove unbound peptide substrate. • 6. Add the CDK2/CyclinE kinase: 200 ng per well, in a volume of 90 μl in kinase buffer (except for “no enzyme” control wells). • 7. Add 1 μl per well of inhibitor to test 10 μM, 3 μM, 1 μM, 0.3 μM and 0.1 μM in final concentration per 100 μl in each well. • 8. Shake gently the Flashplate 1 minute. • 9. Incubate 30 minutes on wet ice. • 10. Initiate the reaction with 10 μl kinase buffer containing 1 μM final cold ATP and 1 μCi final ^33P-ATP per well. • 11. Shake gently the Flashplate 1 minute. • 12. Incubate 45 minutes at RT (no shaking). • 13. Wash the Flashplate 3 times with 300 μl PBS
14. Count to detect the incorporation of ^33P-ATP by the kinase to the Rb phosphorylation site.

Sequence of CDK4/CyclinD1 (P11802 whole entry, species assumed): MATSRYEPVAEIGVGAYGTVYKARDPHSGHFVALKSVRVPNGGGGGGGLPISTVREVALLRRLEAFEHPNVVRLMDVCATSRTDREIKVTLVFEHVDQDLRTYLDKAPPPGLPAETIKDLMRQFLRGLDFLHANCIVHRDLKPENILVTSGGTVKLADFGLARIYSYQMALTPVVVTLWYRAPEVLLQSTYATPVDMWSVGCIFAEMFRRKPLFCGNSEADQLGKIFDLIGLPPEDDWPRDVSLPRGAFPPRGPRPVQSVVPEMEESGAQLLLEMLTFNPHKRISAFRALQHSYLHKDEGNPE
Sequence of CDK4/CyclinD1 (P24385 whole entry partner, species assumed): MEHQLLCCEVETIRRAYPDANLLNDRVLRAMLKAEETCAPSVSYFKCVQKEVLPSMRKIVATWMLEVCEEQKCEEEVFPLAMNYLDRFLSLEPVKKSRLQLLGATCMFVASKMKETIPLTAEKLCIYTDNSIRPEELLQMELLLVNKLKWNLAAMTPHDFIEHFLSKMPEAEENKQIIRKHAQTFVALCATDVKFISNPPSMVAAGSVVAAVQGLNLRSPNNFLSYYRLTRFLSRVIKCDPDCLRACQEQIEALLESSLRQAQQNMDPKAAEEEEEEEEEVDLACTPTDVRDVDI

Row | inhibition at 10 µM [1] [%] | IC50 [2] [nM] | IC50 [1] [nM] | Compound
1 | 52 | 600 |  | O=C(NCc1ccccc1Cl)Nc1nc2cc(OS(=O)(=O)c3ccc(-n4ccnc4)cc3)ccc2[nH]1 [Example 57-g, 4-Imidazol-1-yl-benzenesulfonic acid 2-[3-(2-chloro-benzyl)-ureido]-1H-benzoimidazol-5-yl ester]
2 |  | 30 | 330 | CCN1CCCC1CNC(=O)Nc1nc2cc(OS(=O)(=O)c3ccc(NC4CCCC4)cc3)ccc2[nH]1 (stereo not shown) [Example 58-ah, 4-Cyclopentylamino-benzenesulfonic acid 2-[3-(1-ethyl-pyrrolidin-2-ylmethyl)-ureido]-1H-benzoimidazol-5-yl ester]
3 |  | 100 | 500 | CNC(=O)Nc1nc2cc(OS(=O)(=O)c3ccc(NC4CCCC4)cc3)ccc2[nH]1 [Example 31, N-[5-(4-cyclopentylaminophenylsulfonyloxy)-1H-benzimidazole-2-yl]-methylurea]
4 |  | 130 | 680 | COC(=O)CCCC(=O)Nc1nc2cc(OS(=O)(=O)c3ccc(NC4CCCC4)cc3)ccc2[nH]1 [Example 26, 4-[5-(4-Cyclopentylamino-benzenesulfonyloxy)-1H-benzoimidazol-2-ylcarbamoyl]-butyric acid methyl ester]
5 | 83 | 800 |  | CC(C)(C)NC(=O)Nc1nc2cc(OS(=O)(=O)c3ccc(NC4CCCC4)cc3)ccc2[nH]1 [Example 53, 4-Cyclopentylamino-benzenesulfonic acid 2-(3-tert-butyl-ureido)-1H-benzoimidazol-5-yl ester]
6 | 69 | 1000 |  | O=C(NCc1ccccc1Cl)Nc1nc2cc(OS(=O)(=O)c3ccc(NC4CCCC4)cc3)ccc2[nH]1 [Example 58-g, 4-Cyclopentylamino-benzenesulfonic acid 2-[3-(2-chloro-benzyl)-ureido]-1H-benzoimidazol-5-yl ester]
7 | 60 | 600 |  | O=C(Nc1nc2cc(OS(=O)(=O)c3ccc(NC4CCCC4)cc3)ccc2[nH]1)NC1CCCC1 [Example 58-c, 4-Cyclopentylamino-benzenesulfonic acid 2-(3-cyclopentyl-ureido)-1H-benzoimidazol-5-yl ester]
8 | 49 | 600 |  | CN1CCN(CCCNC(=O)Nc2nc3cc(OS(=O)(=O)c4ccc(-n5ccnc5)cc4)ccc3[nH]2)CC1 [Example 57-k, 4-Imidazol-1-yl-benzenesulfonic acid 2-{3-[3-(4-methyl-piperazin-1-yl)-propyl]-ureido}-1H-benzoimidazol-5-yl ester]
9 |  | 60 | 600 | CCNC(=O)Nc1nc2cc(OS(=O)(=O)c3ccc(NC4CCCC4)cc3)ccc2[nH]1 [Example 45, 4-Cyclopentylamino-benzenesulfonic acid 2-(3-ethyl-ureido)-1H-benzoimidazol-5-yl ester]
10 |  | 120 | 1180 | CC(C)NC(=O)Nc1nc2cc(OS(=O)(=O)c3ccc(NC4CCCC4)cc3)ccc2[nH]1 [Example 34, 4-Cyclopentylamino-benzenesulfonic acid 2-(3-isopropyl-ureido)-1H-benzoimidazol-5-yl ester]
11 |  | 4 | 300 | O=C(NCc1cccnc1)Nc1nc2cc(OS(=O)(=O)c3ccc(NCC4CCCO4)cc3)ccc2[nH]1 (stereo not shown) [Example 59-l, 4-[(Tetrahydro-furan-2-ylmethyl)-amino]-benzenesulfonic acid 2-(3-pyridin-3-ylmethyl-ureido)-1H-benzoimidazol-5-yl ester]
12 |  | 1000 | 4600 | COC(=O)Nc1nc2cc(OS(=O)(=O)c3ccc(-c4cc(C(F)(F)F)n(C)n4)s3)ccc2[nH]1 [Example 62-e, 5-(1-Methyl-5-trifluoromethyl-1H-pyrazol-3-yl)-thiophene-2-sulfonic acid 2-methoxycarbonylamino-1H-benzoimidazol-5-yl ester]
13 |  | 140 | 800 | O=C(Nc1nc2cc(OS(=O)(=O)c3ccc(NC4CCCC4)cc3)ccc2[nH]1)NC1CCC1 [Example 51, 4-Cyclopentylamino-benzenesulfonic acid 2-(3-cyclobutyl-ureido)-1H-benzoimidazol-5-yl ester]
14 |  | 40 | 300 | O=C(NCc1ccccn1)Nc1nc2cc(OS(=O)(=O)c3ccc(NC4CCCC4)cc3)ccc2[nH]1 [Example 50, 4-Cyclopentylamino-benzenesulfonic acid 2-(3-pyridin-2-ylmethyl-ureido)-1H-benzoimidazol-5-yl ester]
15 |  | 150 | 250 | CC(C)NCCNC(=O)Nc1nc2cc(OS(=O)(=O)c3ccc(NC4CCCC4)cc3)ccc2[nH]1 [Example 58-al, 4-Cyclopentylamino-benzenesulfonic acid 2-[3-(2-isopropylamino-ethyl)-ureido]-1H-benzoimidazol-5-yl ester]
16 | 91 | 700 |  | O=C(Nc1ccc(F)cc1)Nc1nc2cc(OS(=O)(=O)c3ccc(NC4CCCC4)cc3)ccc2[nH]1 [Example 58-f, 4-Cyclopentylamino-benzenesulfonic acid 2-[3-(4-fluoro-phenyl)-ureido]-1H-benzoimidazol-5-yl ester]
17 |  | 30 | 1200 | CN1CCN(CCCNC(=O)Nc2nc3cc(OS(=O)(=O)c4ccc(NCC5CCCO5)cc4)ccc3[nH]2)CC1 (stereo not shown) [Example 59-m, 4-[(Tetrahydro-furan-2-ylmethyl)-amino]-benzenesulfonic acid 2-{3-[3-(4-methyl-piperazin-1-yl)-propyl]-ureido}-1H-benzoimidazol-5-yl ester]
18 |  | 80 | 130 | COC(=O)CCC(=O)Nc1nc2cc(OS(=O)(=O)c3ccc(NC4CCCC4)cc3)ccc2[nH]1 [Example 25, N-[5-(4-Cyclopentylamino-benzenesulfonyloxy)-1H-benzoimidazol-2-yl]-succinamic acid methyl ester]
19 | 84 | 1600 |  | O=C(Nc1cccc(F)c1)Nc1nc2cc(OS(=O)(=O)c3ccc(NC4CCCC4)cc3)ccc2[nH]1 [Example 58-d, 4-Cyclopentylamino-benzenesulfonic acid 2-[3-(3-fluoro-phenyl)-ureido]-1H-benzoimidazol-5-yl ester]
20 |  | 40 | 1200 | O=C(NCCN1CCOCC1)Nc1nc2cc(OS(=O)(=O)c3ccc(NCC4CCCO4)cc3)ccc2[nH]1 (stereo not shown) [Example 59-i, 4-[(Tetrahydro-furan-2-ylmethyl)-amino]-benzenesulfonic acid 2-[3-(2-morpholin-4-yl-ethyl)-ureido]-1H-benzoimidazol-5-yl ester]
21 |  | 40 | 390 | O=C(NCCCN1CCCC1)Nc1nc2cc(OS(=O)(=O)c3ccc(NC4CCCC4)cc3)ccc2[nH]1 [Example 58-ag, 4-Cyclopentylamino-benzenesulfonic acid 2-[3-(3-pyrrolidin-1-yl-propyl)-ureido]-1H-benzoimidazol-5-yl ester]
22 |  | 200 | 300 | CNc1ccc(S(=O)(=O)Oc2ccc3[nH]c(NC(=O)OC)nc3c2)cc1 [Example 14, Methyl-5-(4-methylaminophenylsulfonyloxy) benzimidazole-2-carbamate]
23 | 60 | 600 |  | O=C(Nc1nc2cc(OS(=O)(=O)c3ccc(-n4ccnc4)cc3)ccc2[nH]1)NC1CCCC1 [Example 57-c, 4-Imidazol-1-yl-benzenesulfonic acid 2-(3-cyclopentyl-ureido)-1H-benzoimidazol-5-yl ester]
24 |  | 700 | 2920 | COC(=O)Nc1nc2cc(OS(=O)(=O)c3ccc(NC4CCCC4)cc3)ccc2[nH]1 [Example 19, Methyl-5-(4-cyclopentylaminophenylsulfonyloxy) benzimidazole-2-carbamate]
25 |  | 500 | 930 | CCC(CO)Nc1ccc(S(=O)(=O)Oc2ccc3[nH]c(NC(=O)OC)nc3c2)cc1 (stereo not shown) [Example 11, Methyl-5-(4-[1-ethyl, 2-hydroxyethyl]aminophenylsulfonyloxy)benzimidazole-2-carbamate]
26 |  | 400 | 3100 | COC(=O)CCC(=O)Nc1nc2cc(OS(=O)(=O)c3ccc(-n4ccnc4)cc3)ccc2[nH]1 [Example 23, N-[5-(4-Imidazol-1-yl-benzenesulfonyloxy)-1H-benzoimidazol-2-yl]-succinamic acid methyl ester]
27 |  | 1000 | 1500 | COC(=O)Nc1nc2cc(OS(=O)(=O)c3cccc(OC)c3)ccc2[nH]1 [Example 62-i, 3-Methoxy-benzenesulfonic acid 2-methoxycarbonylamino-1H-benzoimidazol-5-yl ester]
28 |  | 800 | 700 | COC(=O)Nc1nc2cc(OS(=O)(=O)c3ccc(NC(C)C)cc3)ccc2[nH]1 [Example 10, Methyl-5-(4-isopropylaminophenylsulfonyloxy) benzimidazole-2-carbamate]
29 |  | 2 | 220 | O=C(NCCCCO)Nc1nc2cc(OS(=O)(=O)c3ccc(NC4CCCC4)cc3)ccc2[nH]1 [Example 58-ab, 4-Cyclopentylamino-benzenesulfonic acid 2-[3-(4-hydroxy-butyl)-ureido]-1H-benzoimidazol-5-yl ester]
